From ChEMBL document CHEMBL4342418, “1,2,3-Triazole-containing hybrids as potential anticancer agents: Current developments, action mechanisms and structure-activity relationships” (Eur J Med Chem, 2019)
In brackets after ≈: the same amount, converted by molar mass.

What was measured:
[1] = Antiproliferative activity against human MiaPaCa cells by SRB assay; assay type: functional; conditions: MIA PaCa-2
MDA-MB-231 [2] = experiment: Antiproliferative activity against human MDA-MB-231 cells by SRB assay; assay type: functional
IMR-32 = experiment: Antiproliferative activity against human IMR32 cells by SRB assay; assay type: functional
PC-3 [3] = experiment: Antiproliferative activity against human PC3 cells assessed as reduction in cell viability after 24 hrs by MTT assay; assay type: functional, cell-based; conditions: PC-3, 24 h
HepG2 [4] = experiment: Antiproliferative activity against human HepG2 cells assessed as reduction in cell viability after 24 hrs by MTT assay; assay type: functional, cell-based; conditions: HepG2, 24 h
MCF7 [5] = experiment: Antiproliferative activity against human MCF7 cells assessed as reduction in cell viability after 24 hrs by MTT assay; assay type: functional, cell-based; conditions: MCF7, 24 h
PBMC = experiment: Cytotoxicity against human PBMC cells assessed as reduction in cell viability after 24 hrs by MTT assay; assay type: cell-based
[6] = Cytotoxicity against human HEK cells assessed as reduction in cell viability after 24 hrs by MTT assay; assay type: cell-based; conditions: HEK293, 24 h
HCT-116 [7] = experiment: Antiproliferative activity against human HCT116 cells assessed as reduction in cell viability after 24 hrs by MTT assay; assay type: functional, cell-based; conditions: HCT-116, 24 h
Erythrocyte = experiment: Cytotoxicity against human RBC cells assessed as reduction in cell viability after 24 hrs by MTT assay; assay type: cell-based
HT-29 = experiment: Antiproliferative activity against human HT-29 cells assessed as reduction in cell viability after 48 hrs by MTT assay; assay type: functional, cell-based; conditions: HT-29, 48 h
HepG2 [8] = experiment: Antiproliferative activity against human HepG2 cells by MTT assay; assay type: functional, cell-based
HeLa [9] = experiment: Antiproliferative activity against human HeLa cells assessed as reduction in cell viability after 24 hrs by MTT assay; assay type: functional, cell-based
A549 [10] = experiment: cells; assay type: functional, cell-based; conditions: Homo sapiens
Description: Antiproliferative activity against human A549 cells by MTT assay

MCF7 [11] = experiment: cells; assay type: functional, cell-based; conditions: Homo sapiens
Description: Antiproliferative activity against human MCF7 cells by MTT assay

T47D = experiment: Antiproliferative activity against human T47D cells by MTT assay; assay type: functional, cell-based
HBL-100 = experiment: Antiproliferative activity against human HBL100 cells by MTT assay; assay type: functional, cell-based
MDA-MB-468 = experiment: Antiproliferative activity against human MDA-MB-468 cells assessed as reduction in cell viability after 72 hrs by MTT assay; assay type: functional, cell-based; conditions: MDA-MB-468, 72 h
MKN-28 = experiment: Antiproliferative activity against human MKN28 cells by MTT assay; assay type: functional, cell-based
SW1573 = experiment: Antiproliferative activity against human SW1573 cells by MTT assay; assay type: functional, cell-based
MDA-MB-231 [12] = experiment: Antiproliferative activity against human MDA-MB-231 cells assessed as reduction in cell viability after 72 hrs by MTT assay; assay type: functional, cell-based; conditions: MDA-MB-231, 72 h, read-out: IC50
PC-3 [13] = experiment: cells; assay type: functional, cell-based; conditions: Homo sapiens, PC-3, 48 h
Description: Antiproliferative activity against human PC3 cells assessed as reduction in cell viability after 48 hrs by MTT assay

ECa-109 cell line = experiment: Antiproliferative activity against human EC109 cells by MTT assay; assay type: functional, cell-based
MKN-45 = experiment: Antiproliferative activity against human MKN45 cells by MTT assay; assay type: functional, cell-based
MGC-803 = experiment: Antiproliferative activity against human MGC803 cells by MTT assay; assay type: functional, cell-based
A549 [14] = experiment: Antiproliferative activity against human A549 cells assessed as reduction in cell viability after 48 hrs by MTT assay; assay type: functional, cell-based; conditions: A549, 48 h
hTERT-BJ = experiment: Cytotoxicity activity against human hTERT-BJ cells by MTT assay; assay type: cell-based
MCF7 [15] = experiment: Antiproliferative activity against human MCF7 cells assessed as reduction in cell viability after 72 hrs by MTT assay; assay type: functional, cell-based; conditions: MCF7, 72 h
HeLa [16] = experiment: Antiproliferative activity against human HeLa cells by MTT assay; assay type: functional, cell-based
A549 [17] = experiment: Antitumour activity against human A549 cells xenografted in Kunming mice assessed as tumour growth inhibition at 20 mg/kg, iv bid administered and measured after week relative to control; assay type: functional; conditions: Mus musculus, read-out: TGI
WiDr = experiment: Antiproliferative activity against human WiDr cells by MTT assay; assay type: functional, cell-based
SK-N-SH = experiment: Antiproliferative activity against human SK-N-SH cells by MTT assay; assay type: functional, cell-based
U-87 MG = experiment: Antiproliferative activity against human U87MG cells assessed as reduction in cell viability after 48 hrs by MTT assay; assay type: functional, cell-based, U-87MG ATCC
[18] = Antiproliferative activity against human HCG27 cells by MTT assay; assay type: functional, cell-based
MDA-MB-231 [19] = experiment: Antiproliferative activity against human MDA-MB-231 cells assessed as reduction in cell viability after 24 hrs by MTT assay; assay type: functional, cell-based; conditions: MDA-MB-231, 24 h
HepG2 [20] = experiment: Antiproliferative activity against human HepG2 cells assessed as reduction in cell viability after 72 hrs by MTT assay; assay type: functional, cell-based; conditions: HepG2, 72 h
HCT-116 [21] = experiment: Antiproliferative activity against human HCT116 cells assessed as reduction in cell viability after 72 hrs by MTT assay; assay type: functional, cell-based; conditions: HCT-116, 72 h
A549 [22] = experiment: Antiproliferative activity against human A549 cells assessed as reduction in cell viability after 72 hrs by MTT assay; assay type: functional, cell-based; conditions: A549, 72 h
U-251 = experiment: Antiproliferative activity against human U251 cells assessed as reduction in cell viability after 72 hrs by MTT assay; assay type: functional, cell-based; conditions: U-251, 72 h
A549/CDDP = experiment: Antiproliferative activity against human A549/CDDP cells assessed as reduction in cell viability after 72 hrs by MTT assay; assay type: functional, cell-based
A549/TR = experiment: Antiproliferative activity against human A549/TR cells assessed as reduction in cell viability after 72 hrs by MTT assay; assay type: functional, cell-based
HGC-27 = experiment: Antiproliferative activity against human HGC27 cells assessed as reduction in cell viability after 48 hrs by MTT assay; assay type: functional, cell-based; conditions: HGC-27, 48 h
[23] = Antiproliferative activity against human GBM2 cells assessed as reduction in cell viability after 72 hrs by MTT assay; assay type: functional, cell-based; conditions: GBM2, 72 h
[24] = Antiproliferative activity against human GBM95 cells assessed as reduction in cell viability after 72 hrs by MTT assay; assay type: functional, cell-based
LoVo = experiment: Antiproliferative activity against human LoVo cells by MTT assay; assay type: functional, cell-based
K562 = experiment: Antiproliferative activity against human K562 cells by MTT assay; assay type: functional, cell-based
HCT-116 [25] = experiment: Antiproliferative activity against human HCT116 cells by MTT assay; assay type: functional, cell-based

Compound `N#Cc1ccccc1Cn1cc(CNc2ccc3oc(-c4ccccc4)cc(=O)c3c2)nn1` has a GI50 [1] of 0.11 to 1 µM, a GI50 (MDA-MB-231 [2]) of 0.11 to 1 µM and a GI50 (IMR-32) of 0.11 to 1 µM.
`C#Cc1cccc(Nc2ncnc3cc(OCCOC)c(OCCOC)cc23)c1` [ERLOTINIB] gave an IC50 (PC-3 [3]) of 11.6 to 26.9 µM, an IC50 (HepG2 [4]) of 11.6 to 26.9 µM and an IC50 (MCF7 [5]) of 11.6 to 26.9 µM. It also gave an IC50 (PBMC) of 20.5 µM, an IC50 [6] of 29.5 µM and an IC50 (HCT-116 [7]) of 11.6 to 26.9 µM. The IC50 (Erythrocyte) was 16.2 µM.
`O=c1[nH]cc(F)c(=O)[nH]1` [FLUOROURACIL] showed an IC50 (HT-29) of 2.42 to 3.61 µM, an IC50 (HepG2 [8]) of 7.22 to 10.3 µM and an IC50 (HeLa [9]) of 1.6 to 1.9 µM. The IC50 (A549 [10]) was 4.3 to 49 µM, the IC50 (MCF7 [11]) was 30 µg/mL (≈ 231 µM) and the IC50 (T47D) was 4.3 to 49 µM. It also gave an IC50 (HBL-100) of 4.3 to 49 µM, an IC50 (MDA-MB-468) of 7.5 to 12.7 µM and an IC50 (MKN-28) of 6.9 to 19.4 µM. For the same compound, the IC50 (PC-3 [3]) was 1.6 to 1.9 µM, the IC50 (HepG2 [4]) was 1.6 to 1.9 µM and the IC50 (SW1573) was 4.3 to 49 µM. The IC50 (MDA-MB-231 [12]) was 7.5 to 12.7 µM, the IC50 (PC-3 [13]) was 2.42 to 3.61 µM and the IC50 (ECa-109 cell line) was 6.5 to 14.6 µM. It also gave an IC50 (MKN-45) of 6.9 to 19.4 µM, an IC50 (MGC-803) of 6.5 to 14.6 µM and an IC50 (A549 [14]) of 2.42 to 3.61 µM. For the same compound, the IC50 (hTERT-BJ) was 5.5 µM, the IC50 (MCF7 [15]) was 7.5 to 12.7 µM and the IC50 (HeLa [16]) was 4.3 to 49 µM. The inhibition in vivo at 20 mg/kg (A549 [17]) was 64.7%, the IC50 (WiDr) was 4.3 to 49 µM and the IC50 (SK-N-SH) was 7.22 to 10.3 µM. For the same compound, the IC50 (U-87 MG) was 2.42 to 3.61 µM, the IC50 [18] was 6.5 to 14.6 µM and the IC50 (MDA-MB-231 [19]) was 1.6 to 1.9 µM.
With `CC(C)=CCC[C@]1(C)C=Cc2c(O)c3c(c(CC=C(C)C)c2O1)O[C@]12C(=C[C@@H]4C[C@H]1C(C)(C)O[C@@]2(C/C=C(/C)C(=O)O)C4=O)C3=O` [GAMBOGIC ACID] the IC50 (HepG2 [20]) was 0.29 to 4.67 µM, the IC50 (HCT-116 [21]) was 0.29 to 4.67 µM and the IC50 (A549 [22]) was 0.29 to 4.67 µM. It also gave an IC50 (U-251) of 0.29 to 4.67 µM, an IC50 (A549/CDDP) of 0.29 to 4.67 µM and an IC50 (A549/TR) of 0.29 to 4.67 µM.
For `COc1ccc2c(c1)[nH]c1c(C)nccc12` [HARMINE], the IC50 (HT-29) was 3.52 to 24.4 µM, the IC50 (HGC-27) was 3.52 to 24.4 µM and the IC50 (PC-3 [13]) was 3.52 to 24.4 µM. The IC50 (MCF7 [15]) was 3.52 to 24.4 µM.
For `Cn1nnc2c(C(N)=O)ncn2c1=O` [TEMOZOLOMIDE], the IC50 [23] was 1130 µM and the IC50 [24] was 625 µM.
With `O=C(CCCCCCC(=O)Nc1ccccc1)NO` [VORINOSTAT] the IC50 (HepG2 [8]) was 4.95 to 7.11 µM, the IC50 (LoVo) was 4.95 to 7.11 µM and the IC50 (K562) was 4.95 to 7.11 µM. It also gave an IC50 (HCT-116 [25]) of 4.95 to 7.11 µM.
